Assay results taken from patent US20190099414A1, “THERAPEUTIC COMPOSITIONS AND METHODS” (UNIVERSITY OF IOWA RESEARCH FOUNDATION, priority 2015, published 2019).

Legend:
[1] = system: rabbit joint capsule fibroblasts; assay: Collagen gel compaction assay; type: cell-based; details: collagen gel seeded with rabbit joint capsule fibroblasts; final blebbistatin concentration 50 μg/mL, treated 24 hours, imaged up to 48 hours
Protocol: The effect of blebbistatin on rabbit joint capsule fibroblasts (RJCF) was analyzed using a collagen gel compaction assay. RJCFs between passage 4 and 9 were trypsinized using 0.1% trypsin/EDTA for 5 minutes at 37° C. and then the added trypsin was neutralized using DMEM containing 10% FBS. The cell suspension was centrifuged at 230 g for 5 minutes and resuspended in a desired volume of 10% FBS containing DMEM. The collagen gels loaded with RJCFs were prepared by mixing 10×PBS containing phenol red, 1N NaOH, rat tail collagen-I, and the cell suspension to give a final yield of 1×10^6 cells/mL and 2 mg/mL collagen. 500 μL of the collagen gel mixture was added to each well in a 24 well plate and allowed to gelate for 30 minutes in an incubator. After 30 minutes 500 μL of DMEM containing 10% FBS and 50 μg/mL ascorbic acid was added to each well and incubated for 24 hours. After 24 hours, 2.5 mg of blank and blebbistatin loaded nanoparticles dispersed in 50 μL of DMEM or 50 μL of pure drug dissolved in DMSO (1 mg/mL) or 50 μL DMSO or 50 μL PBS were added to each gel so that the final blebbistatin concentration was 50 μg/mL or a corresponding solvent volume for controls. […] Images were acquired at 0, 0.15, 0.5, 1, 2, 3, 4, 5, 6, 7, 24 and 48 hours, and the amount of compaction was measured with ImageJ.

Rho/ROCK pathway = assay: Real time PCR analysis of Rho/ROCK pathway gene expression; type: cell-based; details: rabbit joint capsule fibroblasts in collagen gels; 50 μg/mL blebbistatin; 0, 5, 24 and 48 hours; versus blank PLGA particle control
Protocol: Inhibition of Rho/ROCK pathway in RJCFs by blebbistatin nanoparticle was studied using quantitative real-time PCR (qPCR) Two groups of collagen gels were prepared in the same way as described in the collagen gel compaction assay. One group of gels (n=3) was treated with 2.5 mg of blebbistatin nanoparticles dispersed in 50 μL of DMEM so that the final concentration of blebbistatin was 50 μg/mL. The other control group gels (n=3) were also treated in the same way but instead with blank PLGA particles. Measurements were made at four terminal time points of 0, 5, 24 and 48 hours. After each time point the gels were washed twice with DMEM and stored at −80° C. for qPCR analysis.
Total cell RNA was extracted with an RNeasy Mini Kit (Qiagen, Valencia, Calif., USA), by following the manufacturer's protocol. Cells were then homogenized (QIAshredder column, Qiagen), and using an RNeasy column, total RNA was eluted out. The quantity and the quality of the isolated RNA were measured from the absorbance at A260 nm and the ratio of A260/A280 respectively. […] Steady-state mRNA levels were normalized to 18s rRNA and calculated relative to untreated controls by “the relative quantitation using comparative CT” in Multiplex Reactions (PerkinElmer).

[2] = system: rabbit joint capsule fibroblasts; assay: Fluorescent microsphere displacement assay with time-lapse imaging; type: cell-based
Protocol: The effect of blebbistatin on cell ability to compact gels was analyzed by monitoring the displacement of fluorescent microspheres. Cell seeded collagen gels were prepared as described above with the addition of a suspension of fluorescent 4 μm microspheres to achieve a concentration of 5 million microspheres/mL. Approximately, 500 μL of this solution were then carefully added around a 6 mm polydimethysiloxane (PDMS) post in a circular PDMS mold with a 20 mm diameter attached to a 35 mm glass bottom Petri dish. This construct was prepared with the purpose of preventing movement of the gel during imaging, after release. Gels were then incubated at 37° C. for 30 minutes to allow polymerization. Once the gels had polymerized, DMEM supplemented with 10% FBS, 1% Penicillin/Streptomyocin, and 0.1% Amphoterecin B was added. After incubation for 24 hours, the gels were treated with either blebbistatin PLGA particles or with blank PLGA particles for 24 hours. Gels were carefully detached from the surrounding PDMS mold and were rinsed twice using DMEM. […] Microsphere displacements were quantified by use of a custom algorithm using digital image correlation to track the movement of individual particles from frame to frame.

[3] = Raman spectroscopy and differential scanning calorimetry of drug-loaded particles; type: physicochemical; details: Raman shifts and DSC melting point unchanged after loading
Protocol: Confocal Raman spectroscopy was used to characterize the distribution of blebbistatin in the PLGA nanoparticles. Spectra of pure blebbistatin, pure PLGA, blank nanoparticles, and blebbistatin loaded nanoparticles were produced with the 488 nm line of an Ar+ laser (Coherent, Inova 70, 30 mW). After autoalignment of the instrument, the laser beam was focused on the samples using an inverted optical microscope equipped with a 50× objective lens. Spectra were recorded between 80 cm^−1 to 1300 cm^−1 at high resolution. Spectra were spatially resolved at each pixel by passing the backscattered image of the Ar+ laser through a pinhole of diameter 100 μm onto a cooled CCD camera.
Differential scanning calorimetry was employed to analyze the solid state and thermal properties of the nanoparticles. Approximately 2 mg of either lyophilized blank PLGA nanoparticles or drug-loaded PLGA nanoparticles were weighed and hermetically sealed into aluminum pans. An empty aluminum pan was used as a reference. Sample were heated from 25° C. to 300° C. at a rate of 10° C./min under a stream of nitrogen gas flow to produce thermograms for extracting the transition temperature (Tc) and enthalpy of transition (AH).

- fibroblast morphology (time-lapse imaging) ([2]; fibroblasts in collagen gels, compared with untreated gels): more spherical fibroblasts
SMILES: Cc1ccc2c(c1)C(=O)C1(O)CCN(c3ccccc3)C1=N2 (centres unmarked) [blebbistatin, Blebbistatin]
- gel area after compaction [1]: 87%±1%
- RhoA, ROCK1 and ROCK2 gene expression (qPCR) (Rho/ROCK pathway): initial increase in RhoA, ROCKI, and ROCK II genes treated with blebbistatin that then decrease to comparable levels as control
- fluorescent microsphere displacements (cell force generation) ([2]; cell-seeded collagen gels treated 24 hours, compared with control gels): significantly lower
- stability of the drug after loading into the particles [3]: stable and no significant physical/chemical changes occurred
